Patent publication US11040056B2, “Benzimidazoles that enhance the activity of oligonucleotides” (The University of North Carolina at Chapel Hill, priority 2018, dated 2021)

Legend:
[1] = test system: P-glycoprotein (Pgp) expression in NIH-3T3-MDR cells; assay: ASO mediated inhibition of MDR1 gene expression (Pgp by flow cytometry); format: cell-based, mouse; conditions: 100 nM anti-MDR1 ASO 16 h; 10 μM UNC2383 2 h where used; 48 h
Procedure: FIG. 4. Effects with ASOs. Reduction of Pgp expression. NIH 3T3-MDR cells were incubated with 100 nM anti-MDR1 ASO or a mismatched (MM) control for 16 h in DMEM+1% FBS. Cells were rinsed and then treated with 10 μM UNC2383 for 2 h. The compound was removed, and the cells further incubated for 48 h. Expression of Pgp on the cell surface was determined by treating cells with Alexa 488 labeled anti-Pgp monoclonal antibody and binding quantitated by flow cytometry (PE(A)=units of fluorescence intensity). Treatment with ASO complexed with Lipofectamine 2000 (L2K) was a positive control. Y axis, cell counts; X axis, Alexa 488 fluorescence. […] Means±SE, N=3.
We also tested UNC2383 for its ability to affect ASOs rather than SSOs. The ASO was designed to inhibit expression of the MDR1 gene and its product the P-glycoprotein multidrug transporter. […] Cell surface expression of P-glycoprotein was monitored using an Alexa 488 labeled anti-Pgp monoclonal antibody and flow cytometry. […]
SSO-mediated luciferase induction assays were conducted as previously described. (18) In short, HeLaLuc705 cells in 24 well culture plates were preincubated with SSO623 followed by brief treatment with the small molecule; at intervals thereafter, luciferase activity and protein content were determined. […] Cytotoxicity of 2383 was monitored using the Alamar Blue assay. […]

[2] = test system: HeLa Luc705 cells; assay: Alamar Blue cytotoxicity assay; format: cell-based
Procedure: (§1) FIG. 1B-1E. Effects with SSOs. FIG. 1B Structure of UNC2383. FIG. 1C Compound 2383 enhances SSO effects. Cells were incubated in 24-well plates with 100 nM SSO623 or its mismatched control (MM) for 16 h in DMEM+10% FBS, rinsed and then treated with various concentrations of 2383 for 2 h. The cells were then rinsed and incubation continued for an additional 4 h in DMEM+10% FBS. Cells were rinsed twice in PBS and luciferase activity (RLU) and cell protein determined. The larger round symbol indicates the MM oligonucleotide. Means+/−SE. N=3. FIG. 1D Kinetics of 2383 action. Cells were preloaded with 100 nM SSO623 and then exposed to 2383 for various periods after which the compound was removed. The cells were further incubated and then luciferase and protein determined. The total time of incubation in each case was 6 h. FIG. 1E Cytotoxicity of 2383. HeLa Luc705 or NIH-3T3-MDR cells were exposed to 2383 as in (FIG. 1C) then incubated for 24 h in DMEM plus 10% FBS and tested using the Alamar Blue cytotoxicity assay. Means+/−SE. N=3.
(§2) FIG. 3. Effect and Cytotoxicity of Analogs. The effect of selected UNC2383 analogs on luciferase induction by SSO623 was measured as described in Methods and in the legend of FIG. 1B-1E. Cytotoxicity was measured using the Alamar Blue method as in FIG. 1E. MM10 is the effect of 10 uM compound in the presence of a mismatched oligonucleotide. Means and SE. N=3.
(§3) SSO-mediated luciferase induction assays were conducted as previously described. (18) In short, HeLaLuc705 cells in 24 well culture plates were preincubated with SSO623 followed by brief treatment with the small molecule; at intervals thereafter, luciferase activity and protein content were determined. ASO mediated inhibition of MDR1 gene expression utilized an Alexa 488 labeled anti-P-glycoprotein antibody and flow cytometry to measure Pgp expression as described. (20) The anti-MDR1 sequence is 5′-CCATCccgacctcgcGCTCC-3′(SEQ ID NO: 5) (all phosphorothiopate with 2-O-Me residues in capitals). Cytotoxicity of 2383 was monitored using the Alamar Blue assay. (30)

[3] = Alamar Blue cytotoxicity assay; format: cell-based; conditions: human, HeLa Luc705 cells; Alamar Blue cytotoxicity; read-out: TC50
Procedure: as §1, §2, §3

[4] = In vivo toxicity parameters (cardiac blood samples)
Procedure: All animal procedures were conducted in compliance with guidelines of the UNC Laboratory Animal Medicine Department and with federal guidelines. […] (20, 32) EGFP654 mice were administered 35 mg/kg of SSO623 or mismatched oligonucleotide in buffer by intraperitoneal injection on two consecutive days. One day later, mice received either 5 mg/kg of UNC2383 in a 1:1 DMSO/PEG400 solution or only the diluent, via intraperitoneal injection. […] After 24 h, the second cohort was euthanized and tissue and cardiac blood samples were obtained. […] (31) Blood samples were analyzed by the UNC Animal Clinical Chemistry Core facility.

[5] = test system: lysosomes of HeLa Luc 705 cells; assay: Lysotracker Red accumulation assay; format: cell-based; conditions: 2 μM
Procedure: FIG. 9A-9D. Effects on lysosomes. FIG. 9A: Lysotracker uptake. Accumulation of Lysotracker Red in HeLa Luc 705 cells was measured after a 2 h exposure of cells to the indicated concentrations of various analogs. The lysosomotropic compound chloroquine was included as a positive control. Means of triplicate determinations are shown. The color-coded numbers refer to the fold increase in luciferase induction attained by the concentration of analog associated with the adjacent symbol on the graph. The numbers are taken from the data of FIG. 1C for UNC2383 and FIG. 4 for UNC4267, UNC4258, and UNC4428. FIG. 9B: LT50 vs TC50. […] Nonlinear regression was calculated using Prism software. The R^2 value for the plot is 0.91. FIG. 9C: 2383 vs chloroquine; luciferase induction. HeLa Luc705 cells were exposed to SSO623 and then treated with various concentrations of UNC2383 or chloroquine for 2 h and then tested for luciferase induction following the methods described in FIG. 1B-FIG. 1E. […]
The integrity of lysosomes was evaluated using the fluorescent probe Lysotracker Red (Thermo Fisher). […] Cells were thoroughly rinsed in PBS, lysed in 0.2% TX 100, and centrifuged briefly at 4000 rpm, and 100 uL of the supernate was distributed to black 96 well plates for analysis of fluorescence using a FLUOstar Omega 96 well microplate reader.

[6] = 24 h after administration, means +/− SE, N = 4

Structure (SMILES): O=C(Nc1nc2ccccc2n1CCN1CCCC1)c1cc2cc(Cl)ccc2o1 [UNC2383]
- Pgp expression on the cell surface [1]: substantial reduction
- window between effective and toxic concentrations compared to UNC10217938 [2]: narrower
- concentrations showing little toxicity ([2]; 2 h exposure, then 24 h, FIG. 1E): ≤ 10 µM
- TC50/EC50 ([2]; ratio of cytotoxicity TC50 to luciferase induction EC50): 7.5
- CC50 at 2 h [3]: 15 µM
- toxicity in vivo ([4]; 5 mg/kg i.p.): limited toxicity
- ALT [4, 6]: 106 +/− 32 U/L
- AST [4, 6]: 76 +/− 15 U/L
- BUN [4, 6]: 20 ± 4 mg/dL
- Hb [4, 6]: 11.8 ± 0.4 g/dL
- Platelets [4, 6]: 711 +/− 85 × 10^3/ul
- effect on lysotracker accumulation [5]: little effect
